Source: patent US9403827B2, “Substituted purinone compounds” (NOVARTIS AG, priority 2013, dated 2016)

target: T1, human MDM2 protein (amino acids 2-188) (Homo sapiens (Human), UniProt Q00987); assay: TR-FRET p53-MDM2 Assay 2 (modified: 0.1 nM MDM2); assay type: binding; settings: 0.1 nM MDM2, 0.1 nM Europium labeled streptavidin, Tecan genios Pro reader
Protocol: (§1) Time Resolved Fluorescence Energy Transfer (TR-FRET) Assay
(§2) The inhibition of p53-MDM2 and p53-MDM4 interactions is measured by time resolved fluorescence energy transfer (TR-FRET). Fluorescence energy transfer (or Foerster resonance energy transfer) describes an energy transfer between donor and acceptor fluorescent molecules. For this assay, human MDM2 protein (amino acids 2-188) and human MDM4 protein (amino acids 2-185), tagged with a C-terminal biotin moiety, are used in combination with a Europium labeled streptavidin (Perkin Elmer, Inc., Waltham, Mass., USA) serving as the donor fluorophore. The p53 derived, Cy5 labeled peptide Cy5-TFSDLWKLL (p53 aa18-26) is the energy acceptor. Upon excitation of the donor molecule at 340 nm, binding interaction between MDM2 or MDM4 and the p53 peptide induces energy transfer and enhanced response at the acceptor emission wavelength at 665 nm.
(§3) Disruption of the formation of the p53-MDM2 or p53-MDM4 complex due to an inhibitor molecule binding to the p53 binding site of MDM2 or MDM4 results in increased donor emission at 620 nm. The ratiometric FRET assay readout is calculated from the raw data of the two distinct fluorescence signals measured in time resolved mode (fluorescence 665 nm/fluorescence 620 nm×1000).
(§4) The test is performed in white 384-well plates (Greiner Bio-One, reference 781207) in a total volume of 60 μL by adding 1 μL of compounds tested at different concentrations diluted in 100% DMSO (1.7% final DMSO concentration) in reaction buffer (PBS, 125 mM NaCl, 0.001% Novexin (consists of carbohydrate polymers), designed to increase the solubility and stability of proteins; Expedeon Ltd., Cambridgeshire, United Kingdom), 0.01% Gelatin, 0.01% 0.2%, Pluronic F-127 (block copolymer from ethylenoxide and propyleneoxide), 1 mM DTT). After addition of 1.25 nM MDM2-biotinylated or 2.5 nM MDM4-biotinylated (internal preparations, both MDM2 and MDM4 are biotinylated at the C-terminal of the peptide construct), and 0.625 nM Europium labeled streptavidin (Perkin Elmer), the solution is pre-incubated for 15 minutes at room temperature, then 10 nM Cy5-p53 peptide (internal preparation, the Cy5 dye is directly bound to the N-terminal part of p53 peptide construct) is added before an incubation at room temperature for 15 minutes prior to reading the plate. For measurement of samples, a Victor II microplate reader (Perkin Elmer) is used with the following settings: Excitation 340 nm, Emission Donor 620 nm and Emission Acceptor 665 nm. IC50 values are calculated by curve fitting using XLfit. If not specified, reagents are purchased from Sigma-Aldrich Chemie GmBH, Buchs, Switzerland.
(§5) This assay was used to evaluate compounds displaying inhibition of p53-MDM2 interaction and p53-MDM4 interaction at IC50s of 0.005 to 50 μM (p53-MDM2 Assay 1 and p53-MDM4 Assay 1, respectively). For selected compounds displaying IC50s between […] on MDM2, a slightly modified assay is used with the following adaptations: 0.1 nM MDM2, 0.1 nM Europium labeled streptavidin and Tecan genios Pro is used as a microplate reader for the fluorescence measurements (p53-MDM2 Assay 2).

T1 sequence (Q00987 2-188): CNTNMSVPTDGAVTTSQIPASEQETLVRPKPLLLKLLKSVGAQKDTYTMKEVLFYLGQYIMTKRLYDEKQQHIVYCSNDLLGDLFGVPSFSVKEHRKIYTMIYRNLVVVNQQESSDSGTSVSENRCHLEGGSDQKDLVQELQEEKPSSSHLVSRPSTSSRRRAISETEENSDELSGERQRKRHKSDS

`COc1ccc(CO)cc1-c1nc2c(n1C(C)C)C(c1ccc(Cl)cc1C)N(c1cc(Cl)ccc1C)C(=O)N2` (stereo not shown) [Example 11, 1-(5-Chloro-2-methyl-phenyl)-6-(4-chloro-2-methyl-phenyl)-8-(5-hydroxymethyl-2-methoxy-phenyl)-7-isopropyl-1,3,6,7-tetrahydro-purin-2-one] and `COc1ccc(F)cc1-c1nc2c(n1C(C)C)C(c1ccc(Cl)cc1C)N(c1cc(Cl)ccc1C)C(=O)N2` (stereo not shown) [Example 7, 1-(5-Chloro-2-methyl-phenyl)-6-(4-chloro-2-methyl-phenyl)-8-(5-fluoro-2-methoxy-phenyl)-7-isopropyl-1,3,6,7-tetrahydro-purin-2-one] are within 1.5-fold of each other in IC50: 0.371 nM for the first, 0.531 nM for the second.

First: COc1ccc(C#N)cc1-c1nc2c(n1C(C)C)C(c1ccc(Cl)cc1C)N(c1cc(Cl)ccc1C)C(=O)N2 (stereo not shown) [Example 12, 3-[1-(5-Chloro-2-methyl-phenyl)-6-(4-chloro-2-methyl-phenyl)-7-isopropyl-2-oxo-2,3,6,7-tetrahydro-1H-purin-8-yl]-4-methoxy-benzonitrile]
Second: CNC(=O)c1ccc(OC)c(-c2nc3c(n2C(C)C)C(c2ccc(Cl)cc2C)N(c2cc(Cl)ccc2C)C(=O)N3)c1 (stereo not shown) [Example 9, 3-[1-(5-Chloro-2-methyl-phenyl)-6-(4-chloro-2-methyl-phenyl)-7-isopropyl-2-oxo-2,3,6,7-tetrahydro-1H-purin-8-yl]-4-methoxy-N-methyl-benzamide]
The IC50 of the first is 2-fold higher: 0.414 nM for the first, 0.21 nM for the second.

First: COc1ccccc1-c1nc2c(n1C(C)C)C(c1ccc(C#N)cc1)N(c1cccc(Cl)c1F)C(=O)N2 (stereo not shown) [Example 14, 4-(1-(3-Chloro-2-fluorophenyl)-7-isopropyl-8-(2-methoxyphenyl)-2-oxo-2,3,6,7-tetrahydro-1H-purin-6-yl)benzonitrile]
Second: COc1ccccc1-c1nc2c(n1C(C)C)C(c1ccc(C#N)cc1)N(c1cc(Cl)ccc1C)C(=O)N2 (stereo not shown) [Example 13, 4-[1-(5-Chloro-2-methyl-phenyl)-7-isopropyl-8-(2-methoxy-phenyl)-2-oxo-2,3,6,7-tetrahydro-1H-purin-6-yl]-benzonitrile]
The IC50 of the first is 1.5-fold lower: 0.473 nM for the first, 0.724 nM for the second. The first is the more potent here.

`COc1ccc(C(=O)N(C)C)cc1-c1nc2c(n1C(C)C)C(c1ccc(Cl)cc1C)N(c1cc(Cl)ccc1C)C(=O)N2` (stereo not shown) [Example 10, 3-[1-(5-Chloro-2-methyl-phenyl)-6-(4-chloro-2-methyl-phenyl)-7-isopropyl-2-oxo-2,3,6,7-tetrahydro-1H-purin-8-yl]-4-methoxy-N,N-dimethyl-benzamide] and `COc1ccc(C(=O)NCCO)cc1-c1nc2c(n1C(C)C)C(c1ccc(Cl)cc1C)N(c1cc(Cl)ccc1C)C(=O)N2` (stereo not shown) [Example 8, 3-[1-(5-Chloro-2-methyl-phenyl)-6-(4-chloro-2-methyl-phenyl)-7-isopropyl-2-oxo-2,3,6,7-tetrahydro-1H-purin-8-yl]-N-(2-hydroxy-ethyl)-4-methoxy-benzamide] are within 1.5-fold of each other in IC50: 0.432 nM for the first, 0.447 nM for the second.

`COc1nc(N)ncc1-c1nc2c(n1C(C)C)C(c1ccc(Cl)cc1)N(c1cc(Cl)cn(C)c1=O)C(=O)N2` (stereo not shown) [Example 21, 8-(2-Amino-4-methoxypyrimidin-5-yl)-1-(5-chloro-1-methyl-2-oxo-1,2-dihydropyridin-3-yl)-6-(4-chlorophenyl)-7-isopropyl-6,7-dihydro-1H-purin-2(3H)-one] and `COc1ncc(-c2nc3c(n2C(C)C)C(c2ccc(Cl)cc2)N(c2cc(Cl)cn(C)c2=O)C(=O)N3)c(OC)n1` (stereo not shown) [Example 18, 1-(5-Chloro-1-methyl-2-oxo-1,2-dihydropyridin-3-yl)-6-(4-chlorophenyl)-8-(2,4-dimethoxypyrimidin-5-yl)-7-isopropyl-6,7-dihydro-1H-purin-2(3H)-one] are within 1.5-fold of each other in IC50: 4.3 nM for the first, 2.91 nM for the second.

`COc1ncc(-c2nc3c(n2C(C)C)C(c2ccc(Cl)c(F)c2)N(c2cc(Cl)c[nH]c2=O)C(=O)N3)c(OC)n1` (stereo not shown) [Example 25, 1-(5-Chloro-2-oxo-1,2-dihydropyridin-3-yl)-6-(4-chloro-3-fluorophenyl)-8-(2,4-dimethoxypyrimidin-5-yl)-7-isopropyl-6,7-dihydro-1H-purin-2(3H)-one] and `COc1nc(N(C)C)ncc1-c1nc2c(n1C(C)C)C(c1ccc(Cl)c(F)c1)N(c1cc(Cl)c[nH]c1=O)C(=O)N2` (stereo not shown) [Example 20, 1-(5-Chloro-2-oxo-1,2-dihydropyridin-3-yl)-6-(4-chloro-3-fluorophenyl)-8-(2-(dimethylamino)-4-methoxypyrimidin-5-yl)-7-isopropyl-6,7-dihydro-1H-purin-2(3H)-one] are within 1.5-fold of each other in IC50: 0.356 nM for the first, 0.354 nM for the second.

`COc1ncc(-c2nc3c(n2C(C)C)C(c2ccc(Cl)c(F)c2)N(c2ccc(F)c(Cl)c2)C(=O)N3)c(OC)n1` (stereo not shown) [Example 15, 6-(4-Chloro-3-fluorophenyl)-1-(3-chloro-4-fluorophenyl)-8-(2,4-dimethoxypyrimidin-5-yl)-7-isopropyl-6,7-dihydro-1H-purin-2(3H)-one] and `COc1nc(N(C)C)ncc1-c1nc2c(n1C(C)C)C(c1ccc(Cl)c(F)c1)N(c1ccc(F)c(Cl)c1)C(=O)N2` (stereo not shown) [Example 23, 6-(4-Chloro-3-fluorophenyl)-1-(3-chloro-4-fluorophenyl)-8-(2-(dimethylamino)-4-methoxypyrimidin-5-yl)-7-isopropyl-6,7-dihydro-1H-purin-2(3H)-one] are within 1.5-fold of each other in IC50: 0.451 nM for the first, 0.385 nM for the second.

Compared with `COc1ncc(-c2nc3c(n2C(C)C)C(c2ccc(Cl)c(F)c2)N(c2cc(Cl)cn(C)c2=O)C(=O)N3)c(OC)n1` (stereo not shown) [Example 17, 1-(5-Chloro-1-methyl-2-oxo-1,2-dihydropyridin-3-yl)-6-(4-chloro-3-fluorophenyl)-8-(2,4-dimethoxypyrimidin-5-yl)-7-isopropyl-6,7-dihydro-1H-purin-2(3H)-one], `COc1ncc(-c2nc3c(n2C(C)C)C(c2ccc(Cl)c(F)c2)N(c2cc(Cl)c(=O)n(C)c2)C(=O)N3)c(OC)n1` (stereo not shown) [Example 19, 1-(5-Chloro-1-methyl-6-oxo-1,6-dihydropyridin-3-yl)-6-(4-chloro-3-fluorophenyl)-8-(2,4-dimethoxypyrimidin-5-yl)-7-isopropyl-6,7-dihydro-1H-purin-2(3H)-one] is 1.8-fold lower in IC50: 1.67 nM for the first, 0.93 nM for the second.

Going from `COc1ncc(-c2nc3c(n2C(C)C)C(c2ccc(Cl)cc2C)N(c2cc(Cl)c(=O)n(C)c2)C(=O)N3)c(OC)n1` (stereo not shown) [Example 16, 1-(5-Chloro-1-methyl-6-oxo-1,6-dihydro-pyridin-3-yl)-6-(4-chloro-2-methyl-phenyl)-8-(2,4-dimethoxy-pyrimidin-5-yl)-7-isopropyl-1,3,6,7-tetrahydro-purin-2-one] to `COc1nc(N(C)C)ncc1-c1nc2c(n1C(C)C)C(c1ccc(Cl)c(F)c1)N(c1cc(Cl)cn(C)c1=O)C(=O)N2` (stereo not shown) [Example 24, 1-(5-Chloro-1-methyl-2-oxo-1,2-dihydropyridin-3-yl)-6-(4-chloro-3-fluorophenyl)-8-(2-(dimethylamino)-4-methoxypyrimidin-5-yl)-7-isopropyl-6,7-dihydro-1H-purin-2(3H)-one], the IC50 falls from 3.11 nM to 0.748 nM (4.2-fold).

`COc1nc(N(C)C)ncc1-c1nc2c(n1C(C)C)C(c1ccc(Cl)cc1)N(c1cc(Cl)cn(C)c1=O)C(=O)N2` (stereo not shown) [Example 22, 1-(5-Chloro-1-methyl-2-oxo-1,2-dihydropyridin-3-yl)-6-(4-chlorophenyl)-8-(2-(dimethylamino)-4-methoxypyrimidin-5-yl)-7-isopropyl-6,7-dihydro-1H-purin-2(3H)-one] gave an IC50 of 0.587 nM.

target: T1, human MDM2 protein (amino acids 2-188); assay: TR-FRET p53-MDM2 Assay 1; assay type: binding; settings: 1.25 nM MDM2-biotinylated, 10 nM Cy5-p53 peptide
Protocol: as §1, §2, §3, §4, §5

Compared with `CC(C)n1c(Br)nc2c1C(c1ccc(Cl)cc1)N(c1cccc(Cl)c1F)C(=O)N2` (stereo not shown) [Example 5, 8-Bromo-1-(3-chloro-2-fluorophenyl)-6-(4-chlorophenyl)-7-isopropyl-6,7-dihydro-1H-purin-2(3H)-one], `COc1ccncc1-c1nc2c(n1C(C)C)C(c1ccc(Cl)cc1)N(c1cccc(Cl)c1F)C(=O)N2` (stereo not shown) [Example 6, 1-(3-Chloro-2-fluorophenyl)-6-(4-chlorophenyl)-7-isopropyl-8-(4-methoxypyridin-3-yl)-6,7-dihydro-1H-purin-2(3H)-one] is 14-fold lower in IC50: 0.12 µM for the first, 0.0085 µM for the second. The second is the more potent here.

target: human MDM4 protein (amino acids 2-185) (Homo sapiens (Human), UniProt O15151); assay: TR-FRET p53-MDM4 Assay 1; assay type: binding; settings: 2.5 nM MDM4-biotinylated, 10 nM Cy5-p53 peptide
Protocol: as §1, §2, §3, §4, §5

human MDM4 protein (amino acids 2-185), sequence (O15151 2-185): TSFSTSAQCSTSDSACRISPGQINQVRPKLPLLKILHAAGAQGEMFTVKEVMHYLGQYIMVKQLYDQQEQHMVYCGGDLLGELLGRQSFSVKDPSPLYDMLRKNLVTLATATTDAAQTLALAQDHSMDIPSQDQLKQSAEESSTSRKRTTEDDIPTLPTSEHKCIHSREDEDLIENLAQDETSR

For `COc1ccncc1-c1nc2c(n1C(C)C)C(c1ccc(Cl)cc1)N(c1cccc(Cl)c1F)C(=O)N2` (stereo not shown) [Example 6, 1-(3-Chloro-2-fluorophenyl)-6-(4-chlorophenyl)-7-isopropyl-8-(4-methoxypyridin-3-yl)-6,7-dihydro-1H-purin-2(3H)-one], the IC50 was 14 µM.
